# Measurements as given in patent US6617351B1, “Amide, carbamate, and urea derivatives” (Eli Lilly and Company, priority 1998, dated 2003).
# Target: T1, human GluR4B receptor (Homo sapiens, UniProt P48058)
# T1 construct: expressed in transfected cells; host or cells: HEK293
# Experiment: potentiation of agonist-induced excitability of human GluR4B receptor expressed in HEK 293 cells
# Type: cell-based
# Source text: The ability of compounds of formula I to potentiate glutamate receptor-mediated response may be determined using fluorescent calcium indicator dyes (Molecular Probes, Eugene, Oreg., Fluo-3) and by measuring glutamate-evoked efflux of calcium into GluR4 transfected HEK293 cells, as described in more detail below.
# In one test, 96 well plates containing confluent monolayers of HEK cells stably expressing human GluR4B (obtained as described in European Patent Application Publication Number EP-A1-583917) are prepared. […]
# Each test is then performed as follows. […] A second fluorescent reading is taken after 5 minutes incubation. 15 μl of 400 μM glutamate solution is then added to each well (final glutamate concentration 100 μM), and a third reading is taken. The activities of test compounds and cyclothiazide solutions are determined by subtracting the second from the third reading (fluorescence due to addition of glutamate in the presence or absence of test compound or cyclothiazide) and are expressed relative to enhance fluorescence produced by 100 μM cyclothiazide.
# In another test, HEK293 cells stably expressing human GluR4 (obtained as described in European Patent Application Publication No. EP-A1-0583917) are used in the electro-physiological characterization of AMPA receptor potentiators. […] Responses to 1 mM glutamate are then determined in the presence of test compound. […]
# T1 sequence (P48058 21-902): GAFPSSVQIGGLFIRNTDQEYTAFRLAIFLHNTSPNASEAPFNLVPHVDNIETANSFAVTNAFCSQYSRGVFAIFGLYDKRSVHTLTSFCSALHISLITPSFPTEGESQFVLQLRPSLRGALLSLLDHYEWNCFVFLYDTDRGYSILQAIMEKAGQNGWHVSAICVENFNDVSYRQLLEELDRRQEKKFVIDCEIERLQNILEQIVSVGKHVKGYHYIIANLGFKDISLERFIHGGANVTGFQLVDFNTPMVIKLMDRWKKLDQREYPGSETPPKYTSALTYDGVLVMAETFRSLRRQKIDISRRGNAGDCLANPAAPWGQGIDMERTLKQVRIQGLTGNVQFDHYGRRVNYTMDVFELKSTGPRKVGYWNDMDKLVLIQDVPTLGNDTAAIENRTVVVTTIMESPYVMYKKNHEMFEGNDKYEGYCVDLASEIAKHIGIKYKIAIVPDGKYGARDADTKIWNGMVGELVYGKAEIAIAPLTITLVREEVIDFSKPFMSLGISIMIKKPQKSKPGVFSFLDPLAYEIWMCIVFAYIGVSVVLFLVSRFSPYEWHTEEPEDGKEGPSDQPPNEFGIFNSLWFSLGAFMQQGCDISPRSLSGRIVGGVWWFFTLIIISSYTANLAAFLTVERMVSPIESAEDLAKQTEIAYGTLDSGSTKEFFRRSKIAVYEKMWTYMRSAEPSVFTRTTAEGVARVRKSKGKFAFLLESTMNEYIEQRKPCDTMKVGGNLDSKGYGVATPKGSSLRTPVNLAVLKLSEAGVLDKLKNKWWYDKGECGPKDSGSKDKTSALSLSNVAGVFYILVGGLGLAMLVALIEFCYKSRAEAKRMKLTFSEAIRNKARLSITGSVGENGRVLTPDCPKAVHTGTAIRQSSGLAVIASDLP
smiles,measurement,value
NS(=O)(=O)c1cc2c(cc1Cl)NC(C1CC3C=CC1C3)NS2(=O)=O (stereo not shown) [cyclothiazide],potentiation of agonist-induced excitability,potentiate agonist-induced excitability
